Laboratory results from patent US9303033B2, “Pyrazolopyrimidines and related heterocycles as CK2 inhibitors” (SENHWA BIOSCIENCES, INC., priority 2009, dated 2016).
Where two headings read alike, the source gives them in different places.

Assays:
[1] = tested on: BxPC3 human pancreatic adenocarcinoma cells; assay: Cell proliferation assay with Alamar Blue (AB), BxPC3; type: cell-based
Protocol: (§1) A representative cell-proliferation assay protocol using Alamar Blue dye (stored at 4° C., use 20 ul per well) is described hereafter.
(§2) a. Split and trypsinize cells.
(§3) b. Count cells using hemocytometer.
(§4) c. Plate 4,000-5,000 cells per well in 100 μl of medium and seed into a 96-well plate according to the following plate layout. Add cell culture medium only to wells B10 to B12.
(§5) d. Add 100 μl of 2× drug dilution to each well in a concentration shown in the plate layout above. […] Total volume is 200 μl/well.
(§6) e. Incubate four (4) days at 37° C., 5% CO2 in a humidified incubator.
(§7) f. Add […] Alamar Blue reagent to each well.
(§8) g. Incubate for four (4) hours at 37° C., 5% CO2 in a humidified incubator.
(§9) h. Record fluorescence at an excitation wavelength of 544 nm and emission wavelength of 590 nm using a microplate reader.
(§10) In the assays, cells are cultured with a test compound for approximately four days, the dye is then added to the cells and fluorescence of […] dye is detected after approximately four hours. Different types of cells can be utilized in the assays (e.g., HCT-116 human colorectal carcinoma cells, PC-3 human prostatic cancer cells, MDA-MB231 human breast cancer cells, K-562 human chronic myelogenous leukemia (CML) cells, MiaPaca human pancreatic carcinoma cells, MV-4 human acute myeloid leukemia cells, and BxPC3 human pancreatic adenocarcinoma cells).

MDAMB453 = assay: Cell proliferation assay with Alamar Blue (AB), MDAMB453; type: cell-based
Protocol: as §1, §2, §3, §4, §5, §6, §7, §8, §9, §10

recombinant human PIM2 = recombinant human PIM2 (Homo sapiens (Human), UniProt Q9P1W9); assay: PIM-2 assay (33P-ATP filter binding); type: biochemical
CK2 ααββ = CK2 ααββ (Homo sapiens (Human), UniProt P68400); assay: CK2 assay (cell-free, 33P-ATP, phosphocellulose filter plate); type: biochemical
[2] = Homo sapiens, BXPC-3, read-out: AB: BxPC3
[3] = Homo sapiens, MDA-MB-453, MDAMB453 cells, read-out: AB: MDAMB453
[4] = PIM2: IC50 (5 μM ATP), 5 μM ATP
[5] = MDAMB453 cells, read-out: AB: MDAMB453 IC50
[6] = read-out: PIM2: IC50 (5 μM ATP), 5 μM ATP

Chain of CK2 ααββ (P68400 whole entry): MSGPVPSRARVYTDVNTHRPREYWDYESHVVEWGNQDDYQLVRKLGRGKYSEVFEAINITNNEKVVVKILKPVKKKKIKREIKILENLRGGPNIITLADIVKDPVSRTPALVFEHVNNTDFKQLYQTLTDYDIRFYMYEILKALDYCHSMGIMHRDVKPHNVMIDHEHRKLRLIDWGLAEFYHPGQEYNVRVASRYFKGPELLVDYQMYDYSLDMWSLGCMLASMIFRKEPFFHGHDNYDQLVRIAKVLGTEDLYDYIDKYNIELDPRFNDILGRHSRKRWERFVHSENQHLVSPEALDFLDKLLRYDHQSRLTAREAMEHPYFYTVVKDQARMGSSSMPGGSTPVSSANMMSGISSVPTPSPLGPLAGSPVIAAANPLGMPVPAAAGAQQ
Chain of CK2 ααββ (P67870 whole entry partner): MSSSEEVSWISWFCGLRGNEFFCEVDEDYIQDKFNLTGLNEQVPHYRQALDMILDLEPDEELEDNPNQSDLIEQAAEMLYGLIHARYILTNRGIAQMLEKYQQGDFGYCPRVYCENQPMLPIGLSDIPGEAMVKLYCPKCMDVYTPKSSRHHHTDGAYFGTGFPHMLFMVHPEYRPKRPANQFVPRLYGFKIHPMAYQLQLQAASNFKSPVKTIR
Chain of recombinant human PIM2 (Q9P1W9 whole entry): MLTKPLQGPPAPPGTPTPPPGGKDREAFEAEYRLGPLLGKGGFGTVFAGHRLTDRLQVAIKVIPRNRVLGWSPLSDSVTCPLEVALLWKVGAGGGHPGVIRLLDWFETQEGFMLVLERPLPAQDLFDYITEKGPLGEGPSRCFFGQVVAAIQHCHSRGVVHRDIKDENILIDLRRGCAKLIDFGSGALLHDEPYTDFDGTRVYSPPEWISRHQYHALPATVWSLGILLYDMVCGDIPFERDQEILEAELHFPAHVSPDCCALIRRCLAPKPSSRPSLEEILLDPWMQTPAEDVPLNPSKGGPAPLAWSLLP

| SMILES | IC50 [1, 2] [nM] | IC50 (MDAMB453; [3]) [nM] | IC50 (recombinant human PIM2; [4]) [nM] | IC50 (CK2 ααββ) [nM] | other results |
| --- | --- | --- | --- | --- | --- |
| CS(=O)(=O)Nc1cccc(-c2cc(NC3CC3)n3ncc(/C=C4\NC(=O)NC4=O)c3n2)c1 [Example C4] | 3280 | 1490 | 2400 | < 100 | – |
| CC(C)(C)OC(=O)c1cccc(Nc2cc(Nc3cccc(Cl)c3)nc3c(/C=C4\NC(=O)NC4=O)cnn23)c1 [Example B7] | 10200 | 7770 | > 2500 | < 10 | – |
| C[C@H](Nc1cc(NC2CC2)n2ncc(/C=C3\NC(=O)NC3=O)c2n1)C1CC1 [Example U2] | > 30000 | 12800 | 766 | < 10 | – |
| CC(O)c1cccc(-c2cc(NC3CC3)n3ncc(/C=C4\NC(=O)NC4=O)c3n2)c1 (stereo not drawn) [Example S4] | 4610 | 20000 | > 2500 | < 10 | – |
| CN(C)C1CCN(C(=O)c2cccc(Nc3cc(Nc4cccc(Cl)c4)nc4c(/C=C5\NC(=O)NC5=O)cnn34)c2)C1 (stereo not drawn) [Example C7] | > 30000 | 6440 | 1440 | < 10 | – |
| CNc1cc(-c2cccc(CNC(C)=O)c2)nc2c(/C=C3\NC(=O)NC3=O)cnn12 [Example V4] | > 30000 | 12400 | > 2500 | < 100 | – |
| CN(c1cccc(-c2cc(NC3CC3)n3ncc(/C=C4\NC(=O)NC4=O)c3n2)c1)S(C)(=O)=O [Example B5] | 5430 | 26700 | > 2500 | < 10 | – |
| Cc1cc(COc2cccc(-c3cc(NC4CC4)n4ncc(/C=C5\NC(=O)NC5=O)c4n3)c2)no1 [Example G4] | 1190 | 1150 | > 2500 | < 10 | – |
| CN(C)C1CCN(Cc2cc(-c3cc(NC4CC4)n4ncc(C=C5NC(=O)NC5=O)c4n3)cs2)C1 (stereo not drawn) [Compound Z13] | – | – | – | < 10 | IC50 ([1]; read-out: AB: BxPC3): 10200 nM; IC50 (MDAMB453; MDAMB453 cells, read-out: AB: MDAMB453): 2500 nM; IC50 (recombinant human PIM2; [6]): > 2500 nM |
| O=C1NC(=O)/C(=C/c2cnn3c(NC4CC4)cc(-c4cccc(OC(F)(F)F)c4)nc23)N1 [Example T3] | 1540 | 402 | 891 | < 10 | – |
| O=C1NC(=O)/C(=C/c2cnn3c(NC4CC4)cc(-c4cccc(OCC(=O)N5CCCC5)c4)nc23)N1 [Example H4] | 14500 | 1960 | > 2500 | < 10 | – |
| O=C1NC(=O)/C(=C/c2cnn3c(NC4CC4)cc(NN4CCOCC4)nc23)N1 [Example S2] | 3880 | 3510 | 1300 | < 10 | – |
| O=C1NC(=O)/C(=C/c2cnn3c(Nc4cccc(C(=O)O)c4)cc(Nc4cccc(Cl)c4)nc23)N1 [Example D7] | > 30000 | 14200 | > 2500 | < 100 | – |
| CC(=O)NC1CCC(Nc2cc(NC3CC3)n3ncc(/C=C4\NC(=O)NC4=O)c3n2)CC1 (stereo not drawn) [Example A3] | > 30000 | > 30000 | – | < 10 | IC50 (recombinant human PIM2; [6]): > 2500 nM |
| CN(C)CCCOc1cccc(-c2cc(NC3CC3)n3ncc(/C=C4\NC(=O)NC4=O)c3n2)c1 [Example Z3] | 2920 | 284 | 2210 | < 10 | – |
| O=C1NC(=O)/C(=C/c2cnn3c(NC4CC4)cc(NC4CCCC4)nc23)N1 [Example O2] | 10400 | 4510 | > 2500 | < 10 | – |
| O=C1NC(=O)/C(=C/c2cnn3c(NC4CC4)cc(-c4ccc(F)c(C(=O)N5CCOCC5)c4)nc23)N1 [Example F5] | 1810 | 948 | > 2500 | < 10 | – |
| O=C1NC(=O)/C(=C/c2cnn3c(NC4CC4)cc(-c4cccc(OCCCO)c4)nc23)N1 [Example B4] | 7910 | 7870 | 2170 | < 10 | – |
| O=C1NC(=O)/C(=C/c2cnn3c(Nc4cccc(C(=O)N5CCNCC5)c4)cc(Nc4cccc(Cl)c4)nc23)N1 [Example F7] | 14000 | 1590 | 1230 | < 10 | – |
| O=C1NC(=O)/C(=C/c2cnn3c(NC4CC4)cc(NC(=O)C4CC4)nc23)N1 [Example L2] | 11000 | 4170 | – | < 10 | – |
| CS(=O)(=O)N[C@H]1CC[C@H](Nc2cc(NC3CC3)n3ncc(/C=C4\NC(=O)NC4=O)c3n2)CC1 [Example E3] | – | – | > 2500 | < 10 | – |
| O=C1NC(=O)/C(=C/c2cnn3c(NC4CC4)cc(N4CCN(c5ccccn5)CC4)nc23)S1 [Example R3] | – | – | 1820 | < 1000 | – |
| O=C1NC(=O)/C(=C/c2cnn3c(NC4CC4)cc(-c4ccnc(F)c4)nc23)S1 [Example I5] | – | – | 218 | < 1000 | – |
| CC(CNc1cc(Nc2ccc(C#N)cc2Cl)nc2c(C=C3NC(=O)NC3=O)cnn12)N1CCOCC1 (racemic) [Example 522] | – | – | – | < 10 | IC50 ([1]; read-out: AB: BxPC3 IC50): 10400 nM; IC50 (MDAMB453; [5]): 1520 nM |
| COc1cccc(-c2cc(NC3CC3)n3ncc(/C=C4\SC(=O)NC4=O)c3n2)c1 [Example H5] | – | – | 815 | < 100 | – |
| CC(=O)NC1CCC(Nc2cc(NC3CC3)n3ncc(/C=C4\NC(=O)NC4=O)c3n2)CC1 (stereo not drawn) [Example D3] | – | – | – | < 10 | IC50 (recombinant human PIM2; [6]): 476 nM |

Second part, led by results:

| IC50 [1, 2] [nM] | IC50 (MDAMB453; [3]) [nM] | IC50 (recombinant human PIM2; [4]) [nM] | IC50 (CK2 ααββ) [nM] | SMILES | other results |
| --- | --- | --- | --- | --- | --- |
| 3210 | 991 | > 2500 | < 10 | O=C1NC(=O)/C(=C/c2cnn3c(NC4CC4)cc(Nc4ccc(Cl)c(C(F)(F)F)c4)nc23)N1 [Example H1] | – |
| 7990 | 6940 | > 2500 | < 100 | O=C1NC(=O)/C(=C/c2cnn3c(NCC4CC4)cc(Nc4ccc(Cl)nc4)nc23)N1 [Example X1] | – |
| 9180 | 3040 | 845 | < 10 | COC(=O)Nc1cc(NC2CC2)n2ncc(/C=C3\NC(=O)NC3=O)c2n1 [Example N2] | – |
| – | – | – | < 10 | Cc1c(Nc2cccc(Cl)c2)nc2c(C=C3NC(=O)NC3=O)cnn2c1NC1CC1 [Example B46] | IC50 ([1]; read-out: AB: BxPC3 IC50): > 30000 nM; IC50 (MDAMB453; [5]): 24200 nM; PIM2: % inh […] (recombinant human PIM2; at […] compound): 47.606% |
| 1620 | 569 | – | – | O=C1NC(=O)/C(=C/c2cnn3c(NC4CCNC4)cc(Nc4cccc(Cl)c4)nc23)N1 (stereo not drawn) [Example P6] | – |
| 12300 | 2200 | 509 | < 10 | O=C1NC(=O)/C(=C/c2cnn3c(NCC4CC4)cc(Nc4cccc(Cl)c4)nc23)N1 [Example T1] | – |
| 4260 | 1120 | 2410 | < 100 | COC(=O)CN1CCC(Nc2cc(Nc3cccc(Cl)c3)nc3c(/C=C4\NC(=O)NC4=O)cnn23)CC1 [Example O5] | – |
| > 30000 | 1140 | > 2500 | < 10 | O=C1NC(=O)/C(=C/c2cnn3c(NCC(F)(F)F)cc(Nc4cccc(Cl)c4)nc23)N1 [Example O6] | – |
| 16800 | 17700 | > 2500 | < 10 | O=C1NC(=O)/C(=C/c2cnn3c(NC4CC4)cc(Nc4cccc(OC(F)(F)F)c4)nc23)N1 [Example E1] | – |
| 3160 | 936 | 317 | < 1000 | CC(O)CNc1cc(Nc2cccc(Cl)c2)nc2c(/C=C3\NC(=O)NC3=O)cnn12 (stereo not drawn) [Example K6] | – |
| – | – | – | < 10 | N#Cc1ccc(Oc2cc(NC3CC3)n3ncc(C=C4NC(=O)NC4=O)c3n2)c(Cl)c1 [Compound V38] | IC50 ([1]; read-out: AB: BxPC3 IC50): 5200 nM; IC50 (MDAMB453; [5]): 1380 nM; IC50 (recombinant human PIM2; Tables 41B, 42B, read-out: PIM2: IC50): > 2500 nM |
| 3800 | 1140 | – | – | CCOCCNc1cc(Nc2cccc(Cl)c2)nc2c(/C=C3\NC(=O)NC3=O)cnn12 [Example C6] | – |
| 11000 | 1080 | 2450 | < 100 | O=C1NC(=O)/C(=C/c2cnn3c(NC4CCNCC4)cc(Nc4cccc(Cl)c4)nc23)N1 [Example K5] | – |
| 725 | 1790 | 1470 | < 10 | O=C1NC(=O)/C(=C/c2cnn3c(NC4CC4)cc(-c4ccc(O)cc4)nc23)N1 [Example L4] | – |
| 1740 | 948 | – | < 10 | COc1cccc(-c2cc(NC3CC3)n3ncc(/C=C4\NC(=O)NC4=O)c3n2)c1 [Example A5] | – |
| > 30000 | 10500 | – | – | O=C1NC(=O)/C(=C/c2cnn3c(NC4CCCC4)cc(Nc4cccc(Cl)c4)nc23)N1 [Example B6] | – |
| – | – | > 2500 | < 10 | CC(C)Oc1cccc(Nc2cc(NC3CC3)n3ncc(/C=C4\NC(=O)NC4=O)c3n2)c1 [Example M1] | – |
| – | – | 421 | < 1000 | O=C1NC(=O)/C(=C/c2cnn3c(NCc4ccccn4)cc(Nc4cccc(Cl)c4)nc23)N1 [Example H6] | – |
